Assay results as given in PubChem BioAssay AID2252 (Southern Research Specialized Biocontainment Screening …, 2010).

Test system: THP-1 viability, CellTiter-Glo luminescence, 72 h
Assay: PubChem AID 2252

Point of comparison: OC1(c2ccc(Cl)cc2)CCN(Cc2c[nH]c3ccccc23)CC1, EC50 9.75 µM. Against it:
- CCCCn1c(=N)n(CC(=O)c2ccc(Br)s2)c2ccccc21 — 1.8-fold lower, 5.43 µM
- COc1cccc(/C=N\NC(=O)Cn2nnc3ccccc32)c1O — within 1.5-fold, 14.6 µM
- N=c1c2c(n(Cc3ccc(Cl)cc3Cl)c3c1CCC3)CCCC2 — 2.7-fold lower, 3.66 µM
- COc1ccc2nc(C)cc(Nc3ccc(N4CCOCC4)cc3)c2c1 — 4.7-fold higher, 45.9 µM
- COc1ccc(/C=N/Nc2cc(C)nc3c(C)cccc23)cc1 — 1.7-fold lower, 5.61 µM
- O=[N+]([O-])/C=C/c1cc2ccccc2[nH]1 — 4.6-fold higher, 44.9 µM
- CN1CCC(=C2c3ccccc3C=Cc3ccccc32)CC1 — 4.2-fold higher, 41.3 µM
- CCN(CC)CCCCCCCCOC(=O)c1cc(OC)c(OC)c(OC)c1 — 4.9-fold higher, 47.9 µM
- Cc1cnc(C(=O)Nc2nnc(C)s2)cn1 — lower, < 0.1 µM
- O=C(CCN1CCN(c2ccccc2)CC1)N/N=C/c1ccc([N+](=O)[O-])o1 — 4.5-fold higher, 43.9 µM
- CN1CCN(c2ccccc2NC(=O)c2sc3ccccc3c2Cl)CC1 — 2.6-fold higher, 24.9 µM
- N=c1c2c(n(Cc3ccc(Cl)c(Cl)c3)c3c1CCC3)CCCC2 — 2.1-fold lower, 4.66 µM
- CCCCCCCCCCCCOC(=O)C[N+](C)(C)C — 2.4-fold higher, 23.7 µM
- OC(CNCCc1ccc(Cl)cc1)COc1cc(Cl)ccc1Cl (stereo not drawn) — 3.1-fold higher, 29.8 µM
- Cc1ccc(C(=O)NCC(=O)NCCc2ccc(S(N)(=O)=O)cc2)s1 — lower, < 0.1 µM
- CN(C)CCNc1oc(COc2ccc(-c3ccccc3)cc2)nc1C#N — within 1.5-fold, 13.1 µM
- CN1CCN(/N=C/c2c3ccccc3c(Cl)c3ccccc23)CC1 — within 1.5-fold, 13.1 µM
- N=c1c2c(n(Cc3ccc(Cl)cc3)c3c1CCC3)CCC2 — within 1.5-fold, 11.3 µM
- O=C(Nc1cccc(NC(=O)c2ccccc2Cl)c1)c1ccc([N+](=O)[O-])o1 — 4.6-fold lower, 2.11 µM
- NCCCC[C@H]1CN=C(N)N1CCC12CC3CC(CC(C3)C1)C2 — 5.1-fold higher, 49.4 µM
- CC(C)(C)c1ccc(OCCCNC2CCCC2)cc1 — 2-fold higher, 19.9 µM
- O=C(N/N=C/c1ccccn1)c1cccs1 — 2.7-fold higher, 26.4 µM
- C[C@H]1c2cccc(O)c2C(O)=C2C(=O)[C@]3(O)C(O)=C(C(N)=O)C(=O)[C@@H](N(C)C)C3[C@@H](O)C21 (stereo partly drawn) — 2.8-fold higher, 27.5 µM
- Nc1nonc1C(=O)N/N=C/c1cc(Br)ccc1O — 2.3-fold lower, 4.18 µM
- Cc1ccc(N2C(N)=C(C#N)C(c3cccnc3)C3=C2CC(C)(C)CC3=O)cc1 (stereo not drawn) — 3.4-fold higher, 32.9 µM
- O=C(/C=C/c1ccccc1)NC(=S)NNC(=O)c1cnccn1 — 2.1-fold lower, 4.6 µM
- O=C(N/N=C/c1cc([N+](=O)[O-])ccc1O)C1CC1 — 2.8-fold higher, 27.7 µM
- Oc1ccc(/C=N/Nc2nccnc2Cl)c(O)c1 — 6-fold lower, 1.63 µM
- CC(=O)NCc1ccc(C(=O)CCl)cc1 — 3.4-fold higher, 33.3 µM
- Cc1nc(NC2=NCN(CCCN3CCOCC3)CN2)nc2c(C)cccc12 — within 1.5-fold, 13.9 µM
- Cc1c(CCOC(=O)C2C3CC4CC(C3)CC2C4)sc[n+]1CC(=O)c1ccc(Br)cc1 (stereo not drawn) — 1.5-fold lower, 6.34 µM
- Cn1ncnc2c(=O)n(C)c(=O)nc1-2 — 7.1-fold lower, 1.38 µM
- COc1cc(CNCCc2ccccc2)cc(Cl)c1OCc1ccccc1 — 1.7-fold higher, 16.6 µM
- Cn1c(=O)c2c(nc(Br)n2CCSc2nc3ccccc3o2)n(C)c1=O — lower, < 0.1 µM
- CCCCCCCCCCC[N+](C)(C)CC/C=C1/c2ccccc2Sc2ccc(Cl)cc21 — 3.8-fold lower, 2.58 µM
- COc1ccc(Nc2c3ccccc3nc3ccccc23)cc1 — within 1.5-fold, 8.99 µM
- Cc1ccccc1C(=O)N/N=C/c1ccc([N+](=O)[O-])s1 — 1.7-fold higher, 16.8 µM
- O=C(Oc1c(Cl)cc(Cl)c2cccnc12)c1cccc([N+](=O)[O-])c1 — within 1.5-fold, 14.6 µM
- Cc1cccc(NC(=O)C2CCCN2S(=O)(=O)c2ccc3c(c2)n(C)c(=O)c(=O)n3C)c1 (stereo not drawn) — within 1.5-fold, 11 µM
- O=C1c2c(O)ccc(O)c2C(=O)c2c(NCCNCCO)ccc(NCCNCCO)c21 — lower, < 0.1 µM
- Cc1ccc(C(C)C)c(OCCNC(=O)c2ccccc2O)c1 — 3.3-fold higher, 32.5 µM
- CN(C)CCCN1c2ccccc2CCc2ccc(Cl)cc21 — 1.9-fold higher, 18.4 µM
- CN1CCCN(C(c2ccccc2)c2ccc(Cl)cc2)CC1 (stereo not drawn) — within 1.5-fold, 8.99 µM
- N#C/C(=C\c1ccc(O)c(O)c1)C(=O)NCc1ccccc1 — 2.8-fold higher, 27.1 µM
- CCOc1cc(CNC(C)(C)CO)cc(Br)c1OCc1ccc(Cl)cc1Cl — 1.8-fold lower, 5.53 µM
- CO[C@H]1C=CO[C@@]2(C)Oc3c(C)c(O)c4c(O)c(c(C=NN5CCN(C)CC5)c(O)c4c3C2=O)NC(=O)C(C)=CC=C[C@H](C)[C@H](O)[C@@H](C)[C@@H](O)[C@@H](C)[C@H](OC(C)=O)[C@@H]1C — 4.3-fold higher, 42.4 µM
- Oc1[nH]c2ccccc2c1N=NC(=S)N1CCOCC1 — 3.9-fold lower, 2.48 µM
- Cc1nc2ccccn2c1C(=O)N/N=C/c1ccc([N+](=O)[O-])o1 — within 1.5-fold, 13.9 µM
- CC1CC(C)CN(CCOc2ccc(Cl)cc2Cl)C1 (stereo not drawn) — 3-fold higher, 29.4 µM
- Cc1cc(N/N=C/c2ccc(O)cc2)c2cccc(C)c2n1 — within 1.5-fold, 7.3 µM
- NC(N)=Nc1nc(-c2ccccc2)c2cc(Cl)ccc2n1 — 2.6-fold lower, 3.77 µM
- O=Cc1c(Cl)nc2ccccn2c1=O — 2.2-fold higher, 21.7 µM
- CCC[C@H](CN[C@@H](CNC)[C@H](C)CC)NCCc1cc(C(F)(F)F)cc(C(F)(F)F)c1 — 2.4-fold lower, 4.07 µM
- Nc1cc(Cl)c2nonc2c1[N+](=O)[O-] — 3.6-fold lower, 2.73 µM
- Cc1cc(C)c2sc(N(CCCN(C)C)C(=O)COc3ccc(Cl)cc3)nc2c1 — 1.8-fold higher, 17.7 µM
- O=c1c2ccccc2nc(COc2ccccc2)n1/N=C/c1ccc(O)cc1O — 6.7-fold lower, 1.46 µM
- C#CCOCCOCCOCCNc1nc(N2CCN(C(=O)CCCCCCCCCCNC(=O)[C@H](CCCCN)n3cc(C[C@@H](C)CC)nn3)CC2)nc(N2CCN(C(=O)CCCCCCCCCCNC(=O)[C@@H]([C@H](C)O)n3cc(C)nn3)CC2)n1 — 1.6-fold lower, 6.17 µM
- CC(C)(c1ccccc1)c1ccc(OCCCNCCO)cc1 — 1.7-fold higher, 16.6 µM
- c1ccc(Nc2nc(NCC3CCCO3)c3ccccc3n2)cc1 (stereo not drawn) — 2.5-fold lower, 3.83 µM
- CCn1cc(C(=O)O)c(=O)c2cc(F)c(N3CCN(C(=S)NC(=O)c4cccc(C)c4)CC3)cc21 — lower, < 0.1 µM
- COc1cccc2[nH]c3c(N4CCN(Cc5ccc6c(c5)OCO6)CC4)ncnc3c12 — 4.3-fold higher, 42.2 µM
- CCCN1CCC(NCc2cn(C)nc2-c2ccc(Oc3ccccc3)cc2)CC1 — within 1.5-fold, 9.72 µM
- Fc1ccc(Nc2nnc(C(F)(F)F)s2)cc1Cl — 1.9-fold higher, 18.5 µM
- Cc1nc2ccccc2nc1N/N=C/c1ccc(O)cc1O — 2.7-fold lower, 3.62 µM
- Cc1[nH]c2ccc(OC(F)(F)F)cc2c1CCNCc1ccc(Cl)cc1 — 2-fold lower, 4.99 µM
- Oc1c(CN2CCN(c3ccccn3)CC2)cc(Cl)c2cccnc12 — 5.9-fold lower, 1.64 µM
- COC(=O)c1cc(CSC(=N)N)ccc1OCCC(C)C — 1.5-fold higher, 14.7 µM
- Cc1ccc(C(c2cc(Cl)c3cccnc3c2O)N2CCN(C)CC2)cc1 (stereo not drawn) — 2-fold lower, 4.95 µM
- CC(NCC(O)COc1ccc2ccccc2c1)c1ccccc1 (stereo not drawn) — within 1.5-fold, 6.71 µM
- c1ccc2c(c1)CCN(c1nc3ccccc3n3cnnc13)C2 — 2.5-fold higher, 24.8 µM
- S=C1SCN(Cc2cccnc2)CN1Cc1cccnc1 — 2.5-fold lower, 3.92 µM
- Cc1ccc(-c2csc(NC(=O)C[n+]3cc(-c4ccc(C)cc4)n4c3CCC4)n2)cc1 — within 1.5-fold, 8.33 µM
- CC1(C)N=C(N)N=C(N)N1c1ccc(Oc2ccc(Cl)cc2)c(Cl)c1 — 4-fold lower, 2.45 µM
- CCN1CCN(CCCNC(=O)c2ccc(/C=C3/Sc4ccccc4N(Cc4ccccc4F)C3=O)cc2)CC1 — within 1.5-fold, 11.2 µM
- Cc1ccc2cc(CN(CCN(C)C)C(=O)Nc3ccc(Cl)cc3)c(=O)[nH]c2c1 — 2-fold higher, 19.1 µM
- CC[C@H](C)[C@@H](CN[C@H](C)CNC)NCCC(c1ccccc1)c1ccccc1 — within 1.5-fold, 7.07 µM
- ON=C1/C(=N\O)CC2(C/C1=N/O)OCCO2 — 3.4-fold higher, 33.2 µM
- Cc1cc(NC2CCCCC2)nc(NCc2ccccc2)n1 — 1.5-fold higher, 14.9 µM
- CNCC[C@H](Oc1cccc2ccccc12)c1cccs1 — 1.9-fold higher, 18.3 µM
- Oc1cccc(C=NCc2ccccc2)c1O — 4-fold higher, 38.9 µM
- O=C(CCl)Nc1nccs1 — within 1.5-fold, 14.4 µM
- COc1ccc(NC2=NC3(CCCCC3)N=C(N)N2)cc1 — 2.8-fold higher, 27 µM
- Cn1c(SCC(=O)N/N=C/c2ccc([N+](=O)[O-])s2)nnc1-c1ccc(Cl)cc1 — within 1.5-fold, 7.71 µM
- COc1ccc(C(=O)NC(=S)NNC(=O)c2cnccn2)cc1OC — within 1.5-fold, 6.82 µM
- Cc1cc(/C=C\c2ccc3cc(N(C)C)ccc3[n+]2C)c(C)n1-c1ccccc1 — 2-fold lower, 4.95 µM
- COC(=O)CC1C(=O)NCCN1C(=O)CSc1nc2ccc([N+](=O)[O-])cc2s1 (stereo not drawn) — lower, < 0.1 µM
- CN1CCN(C2=Cc3ccccc3Sc3cc(F)c(Cl)cc32)CC1 — 1.9-fold higher, 18.2 µM
- CN(C)CCCN(C(=O)c1cc2cc([N+](=O)[O-])ccc2s1)c1nc2cc3c(cc2s1)OCCO3 — 3.2-fold lower, 3.04 µM
- CC1=C([N+](=O)[O-])C(c2cccc(Br)c2)C2=C(N1)c1ccccc1C2=O (stereo not drawn) — 3.1-fold lower, 3.1 µM
- CC(C)[C@@H](C(=O)NC1CCCC1)N1C(=O)N2CCc3c([nH]c4ccccc34)[C@@]2(C)C1=O — 4.7-fold higher, 45.5 µM
- CCOC(=O)COc1cccc2c(=O)n(CC(=O)N3CCCCC3)ccc12 — 2.5-fold higher, 24.5 µM
- COc1ccc(Nc2ccnc3ccccc23)cc1 — 3.1-fold higher, 30.7 µM
- Cc1ccc(C(=O)NCCN2C3=NC[C@@H](Cc4ccccc4)N3C[C@H]2Cc2ccc(O)cc2)cc1Br — within 1.5-fold, 8.09 µM
- COc1cc(CNCCc2c[nH]c3ccccc23)ccc1OCc1ccc(F)cc1 — 1.5-fold lower, 6.34 µM
- O=C1C=CC(=O)N1CCCCCCN1C(=O)C=CC1=O — 3-fold lower, 3.29 µM
- O=C(N=Nc1c(O)[nH]c2ccccc12)c1cc(-c2cccs2)[nH]n1 — lower, < 0.1 µM
- Cc1c(CN(C)C)c2c(n1Cc1ccccc1)C(=O)c1ccc(Br)cc1-2 — 2.2-fold higher, 21.1 µM
- O=C(/C=C/c1ccco1)NC(=S)NNC(=O)c1ccco1 — 3.3-fold higher, 32.3 µM
- CNC[C@@H](Cc1ccccc1)NC[C@@H](CC1CCCCC1)NCCCc1ccccc1 — 2.7-fold lower, 3.56 µM
- O=C(N/N=C/c1cc(Br)ccc1O)c1ccncc1 — 1.9-fold lower, 5.06 µM
- CCCC(=O)NC(c1ccco1)c1cc([N+](=O)[O-])c2cccnc2c1O (stereo not drawn) — 2.3-fold higher, 22.9 µM
- O=C(C[n+]1cc(-c2ccc(Cl)cc2)n2c1CCC2)N1c2ccccc2Sc2ccccc21 — 1.6-fold higher, 15.4 µM
- Cc1nn(-c2ccccc2)c(C)c1/C=N/n1c(-c2ccc(C(C)(C)C)cc2)n[nH]c1=S — 3.3-fold higher, 32.1 µM
- CCn1cc(C(=O)O)c(=O)c2cc(F)c(N3CCN(S(=O)(=O)c4ccc(NC(C)=O)cc4)CC3)cc21 — 4.8-fold higher, 47.2 µM
- O=C(Nc1ccc(Cl)cc1)N1CCOC12CCC1(CC2)OCCO1 — lower, < 0.1 µM
- CCCOc1ccc(CSC2=NCCN2)cc1[N+](=O)[O-] — 2.1-fold higher, 20.8 µM
- COc1cccc(/C=N/NC(=O)CNC(=O)COc2cccc(C)c2)c1O — within 1.5-fold, 9.52 µM
- O=C(N/N=C/c1ccc([N+](=O)[O-])s1)c1cccnc1 — 1.5-fold higher, 14.9 µM
- O=C(NC(=S)NNC(=O)c1ccccc1O)c1ccco1 — 1.8-fold higher, 17.2 µM
- CN1CCN(C2=Cc3cc(Cl)ccc3Sc3cc(F)ccc32)CC1 — within 1.5-fold, 13.4 µM
- N=c1n(CCN2CCCCC2)c2ccccc2n1CC(=O)c1ccc(Cl)c(Cl)c1 — 2.1-fold higher, 20.4 µM
- CCCCCCCCCCCCCCCC[n+]1cccc(C(=O)N(CC)CC)c1 — 22-fold lower, 0.44 µM
